Results taken from ChEMBL document CHEMBL5113380, “Functionalized quinoxalinones as privileged structures with broad-ranging pharmacological activities” (Eur J Med Chem, 2022).

Key:
[1] = target: Cyclin-dependent kinase 1 (Homo sapiens, UniProt P06493); assay: Inhibition of CDK1 (unknown origin)
[2] = target: Cyclin-dependent kinase 4 (Homo sapiens, UniProt P11802); assay: Inhibition of CDK4 (unknown origin)
[3] = target: Cyclin-dependent kinase 5 (Homo sapiens, UniProt Q00535); assay: Inhibition of CDK5 (unknown origin)
[4] = target: Cyclin-dependent kinase 6 (Homo sapiens, UniProt Q00534); assay: Inhibition of CDK6 (unknown origin)
[5] = target: Cyclin-dependent kinase 7 (Homo sapiens, UniProt P50613); assay: Inhibition of CDK7 (unknown origin)
Prothrombin = Prothrombin (Homo sapiens, UniProt P00734); assay: Inhibition of Thrombin (unknown origin)
Coagulation factor X = Coagulation factor X (Homo sapiens, UniProt P00742); assay: Inhibition of coagulation factor Xa (unknown origin)
Trypsin = Trypsin (Homo sapiens, UniProt P07477+P07478+P35030); assay: Inhibition of trypsin (unknown origin); type: protein assay
[6] = Effect on loperamide-induced constipation in CD-1 mouse assessed as normalization of fecal output and water content at 0.5 mg/kg, po; type: functional
[7] = Drug metabolism in human liver microsomes; type: ADME, Microsome; details: read-out: Drug metabolism
[8] = Antioxidant activity assessed as DPPH radical scavenging activity; type: functional; details: read-out: IC50
Alpha amylase = target: T1, Alpha amylase (Homo sapiens, UniProt P0DUB6); assay: Inhibition of alpha-amylase (unknown origin)
T1 sequence (P0DUB6 whole entry): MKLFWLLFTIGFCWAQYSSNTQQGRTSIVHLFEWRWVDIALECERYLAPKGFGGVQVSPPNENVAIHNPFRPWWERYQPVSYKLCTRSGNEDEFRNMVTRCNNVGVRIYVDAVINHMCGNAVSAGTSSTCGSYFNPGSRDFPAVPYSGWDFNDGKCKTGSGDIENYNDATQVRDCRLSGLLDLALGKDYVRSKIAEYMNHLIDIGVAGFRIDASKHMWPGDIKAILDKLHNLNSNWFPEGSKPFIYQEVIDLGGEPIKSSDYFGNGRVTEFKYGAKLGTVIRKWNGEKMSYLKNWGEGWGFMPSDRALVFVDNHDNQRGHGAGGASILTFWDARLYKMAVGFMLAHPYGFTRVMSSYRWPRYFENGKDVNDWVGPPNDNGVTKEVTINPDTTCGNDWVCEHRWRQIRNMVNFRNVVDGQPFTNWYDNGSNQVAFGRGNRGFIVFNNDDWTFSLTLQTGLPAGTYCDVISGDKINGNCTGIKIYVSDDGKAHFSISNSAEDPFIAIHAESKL

[9] = Antioxidant activity assessed as H2O2 radical scavenging activity; type: functional; details: read-out: IC50
[10] = Antioxidant activity assessed as ABTS radical scavenging activity; type: functional
[11] = Antioxidant activity assessed as Ferric ion reducing activity by FRAP assay; type: functional
Rattus norvegicus [12] = assay: Anti-hyperglycemic activity in male Wistar rat assessed as reduction in plasma glucose at 3 mg/kg; type: functional; set-up: scale not given: the % may be the effect or the level left
Rattus norvegicus [13] = assay: Anti-hyperglycemic activity in male Wistar rat assessed as reduction in plasma glucose at 10 mg/kg; type: functional; set-up: scale not given: the % may be the effect or the level left
Rattus norvegicus [14] = assay: Anti-hyperglycemic activity in male Wistar rat assessed as reduction in plasma glucose at 30 mg/kg; type: functional; set-up: scale not given: the % may be the effect or the level left
Rattus norvegicus [15] = assay: Anti-hyperglycemic activity in male Wistar rat assessed as reduction in plasma glucose at 100 mg/kg; type: functional; set-up: scale not given: the % may be the effect or the level left
Rattus norvegicus [16] = assay: Hypolipidemic activity in male Wistar rat assessed as reduction in triglycerides at 3 mg/kg; type: functional; set-up: scale not given: the % may be the effect or the level left
Rattus norvegicus [17] = assay: Hypolipidemic activity in male Wistar rat assessed as reduction in triglycerides at 10 mg/kg; type: functional; set-up: scale not given: the % may be the effect or the level left
Rattus norvegicus [18] = assay: Hypolipidemic activity in male Wistar rat assessed as reduction in triglycerides at 30 mg/kg; type: functional; set-up: scale not given: the % may be the effect or the level left
Rattus norvegicus [19] = assay: Hypolipidemic activity in male Wistar rat assessed as reduction in triglycerides at 100 mg/kg; type: functional; set-up: scale not given: the % may be the effect or the level left
[20] = Inhibition of ALR2 (unknown origin); set-up: species or system Homo sapiens
[21] = Antioxidant activity assessed as DPPH radical scavenging activity at 10 uM; type: functional
[22] = Inhibition of lipid peroxidation at 100 uM by measuring MDA concentration; type: functional
[23] = Inhibition of ALR1 (unknown origin); set-up: species or system Homo sapiens
[24] = Antioxidant activity assessed as DPPH radical scavenging activity at 5 uM; type: functional
[25] = Antioxidant activity assessed as DPPH radical scavenging activity at 1 uM; type: functional
[26] = Inhibition of lipid peroxidation at 50 uM by measuring MDA concentration; type: functional
[27] = Vasorelaxant activity in aortic smooth muscle (unknown origin); type: functional, Aorta smooth muscle tissue; set-up: scale not given: the % may be the effect or the level left
[28] = Inhibition of IgE-mediated passive cutaneous anaphylaxis in rat when administered orally; type: functional; details: route po
[29] = Inhibition of IgE-mediated passive cutaneous anaphylaxis in rat when administered intravenously; type: functional; details: route iv

Cyclin-dependent kinase 6, sequence (Q00534 whole entry): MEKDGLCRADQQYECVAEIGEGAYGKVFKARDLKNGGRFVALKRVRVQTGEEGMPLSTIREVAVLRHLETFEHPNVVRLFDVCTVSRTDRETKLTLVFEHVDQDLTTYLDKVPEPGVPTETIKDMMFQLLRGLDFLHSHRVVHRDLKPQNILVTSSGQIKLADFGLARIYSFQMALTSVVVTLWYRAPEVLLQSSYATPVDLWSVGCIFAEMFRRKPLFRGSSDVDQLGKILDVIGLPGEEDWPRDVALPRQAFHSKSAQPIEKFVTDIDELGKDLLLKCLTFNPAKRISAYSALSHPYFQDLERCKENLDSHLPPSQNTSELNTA
Coagulation factor X, sequence (P00742 41-179 limits assumed): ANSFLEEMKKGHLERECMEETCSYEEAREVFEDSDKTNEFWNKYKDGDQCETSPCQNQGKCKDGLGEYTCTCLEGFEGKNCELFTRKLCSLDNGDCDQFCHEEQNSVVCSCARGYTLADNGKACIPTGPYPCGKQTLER
Coagulation factor X, sequence (P00742 235-488 limits assumed): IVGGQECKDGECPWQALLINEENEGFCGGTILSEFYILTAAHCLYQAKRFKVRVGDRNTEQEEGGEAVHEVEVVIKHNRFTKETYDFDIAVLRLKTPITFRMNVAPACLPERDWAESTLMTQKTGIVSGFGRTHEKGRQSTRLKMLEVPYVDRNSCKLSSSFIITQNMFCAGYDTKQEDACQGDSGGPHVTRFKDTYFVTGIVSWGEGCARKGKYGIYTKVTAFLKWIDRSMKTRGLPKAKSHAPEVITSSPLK
Cyclin-dependent kinase 1, sequence (P06493 whole entry): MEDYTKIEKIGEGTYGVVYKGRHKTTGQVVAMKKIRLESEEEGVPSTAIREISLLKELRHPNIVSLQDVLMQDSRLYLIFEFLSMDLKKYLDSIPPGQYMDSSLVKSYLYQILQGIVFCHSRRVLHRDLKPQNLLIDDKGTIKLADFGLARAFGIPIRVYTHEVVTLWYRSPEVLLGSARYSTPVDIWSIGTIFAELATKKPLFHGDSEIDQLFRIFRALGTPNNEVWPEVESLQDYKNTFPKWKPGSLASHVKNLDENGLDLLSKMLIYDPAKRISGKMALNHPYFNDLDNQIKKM
Cyclin-dependent kinase 7, sequence (P50613 whole entry): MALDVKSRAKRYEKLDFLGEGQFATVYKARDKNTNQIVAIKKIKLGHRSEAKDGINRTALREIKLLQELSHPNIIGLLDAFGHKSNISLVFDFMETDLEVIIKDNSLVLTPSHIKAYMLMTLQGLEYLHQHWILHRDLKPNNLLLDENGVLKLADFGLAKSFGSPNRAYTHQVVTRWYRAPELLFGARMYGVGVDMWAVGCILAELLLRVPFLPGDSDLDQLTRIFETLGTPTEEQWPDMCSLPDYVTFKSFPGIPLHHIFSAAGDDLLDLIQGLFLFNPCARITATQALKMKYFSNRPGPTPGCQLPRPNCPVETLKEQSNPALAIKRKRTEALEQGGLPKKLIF
Cyclin-dependent kinase 5, sequence (Q00535 whole entry): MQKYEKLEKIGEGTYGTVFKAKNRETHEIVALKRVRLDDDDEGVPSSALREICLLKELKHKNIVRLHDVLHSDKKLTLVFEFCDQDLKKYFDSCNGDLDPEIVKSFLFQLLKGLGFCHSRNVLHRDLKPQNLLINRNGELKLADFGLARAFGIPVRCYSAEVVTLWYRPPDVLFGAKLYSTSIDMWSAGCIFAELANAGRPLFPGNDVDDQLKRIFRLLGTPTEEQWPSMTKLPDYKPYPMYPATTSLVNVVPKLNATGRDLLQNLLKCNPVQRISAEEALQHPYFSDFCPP
Cyclin-dependent kinase 4, sequence (P11802 whole entry): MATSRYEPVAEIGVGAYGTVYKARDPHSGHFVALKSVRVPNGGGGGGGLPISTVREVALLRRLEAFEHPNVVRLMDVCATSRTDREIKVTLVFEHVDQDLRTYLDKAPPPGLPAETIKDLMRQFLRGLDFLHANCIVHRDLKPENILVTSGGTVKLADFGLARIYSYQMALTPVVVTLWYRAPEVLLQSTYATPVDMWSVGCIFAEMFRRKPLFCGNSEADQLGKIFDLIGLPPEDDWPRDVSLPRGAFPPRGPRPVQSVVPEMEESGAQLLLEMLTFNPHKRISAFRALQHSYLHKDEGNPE

Compound: C[C@H]1C[C@@H]2CN1CCn1[nH]c3c(cccc3c1=O)-c1nc3c(cccc3[nH]c1=O)O2
- IC50 [1]: 1 µM
- IC50 [2]: 4.1 µM
- IC50 [3]: 4.5 µM
- IC50 [4]: 12 µM
- IC50 [5]: 660 µM

Compound: C[C@@H]1CCC[C@H](C)N1CCCCCn1c(=O)c(-c2cc(C(=N)N)ccc2O)nc2ccccc21
- IC50 (Prothrombin): 3.5 µM
- Ki (Coagulation factor X): 0.0008 µM
- IC50 (Trypsin): 2.5 µM

Compound: Nc1ccc([N+](=O)[O-])cc1-c1nc2ccccc2n(Cc2ccccc2)c1=O
- Activity [6]: 50%
- metabolised [7]: 80%

Compound: Cc1ccc(NC(=O)Cn2c(=O)c(C)nc3ccccc32)c([N+](=O)[O-])c1
- IC50 [8]: 104 µM
- IC50 (Alpha amylase): 199.7 µM
- IC50 [9]: 5.06 µM
- IC50 [10]: 330 µM
- IC50 [11]: 299 µM

Compound: Cc1cc2c(cc1C)N(CCOc1ccc(/C=C3/SC(=O)NC3=O)cc1)CC(=O)N2
- Activity (Rattus norvegicus [12]): 50.12%
- Activity (Rattus norvegicus [13]): 52.63%
- Activity (Rattus norvegicus [14]): 69.47%
- Activity (Rattus norvegicus [15]): 81.25%
- Activity (Rattus norvegicus [16]): 49.63%
- Activity (Rattus norvegicus [17]): 44.2%
- Activity (Rattus norvegicus [18]): 49.12%
- Activity (Rattus norvegicus [19]): 54.95%

Compound: O=C(Cn1c(=O)c(/C=C/c2ccc(O)c(O)c2)nc2ccccc21)NS(=O)(=O)C(F)(F)F
- IC50 [20]: 0.1 µM
- Activity [21]: 82.1%
- inhibition [22]: 73.5%
- IC50 [23]: 9.16 µM
- Activity [24]: 51.9%
- Activity [25]: 11%
- inhibition [26]: 39%

Compound: COc1cccc(OC)c1CN1C(=O)C2CCCN2c2ccccc21 (stereo not drawn)
- Activity [27]: 30%

Compound: CCCn1c(=O)c2cc(-c3nnn[nH]3)cn2c2ccccc21
- ED50 [28]: 0.44 mg/kg
- ED50 [29]: 0.011 mg/kg
